Assay results from patent US10246733B2, “Assay and method for quantitating carbonic anhydrase activity and assessing red blood hemolysis” (CASE WESTERN RESERVE UNIVERSITY, priority 2015, dated 2019).

Columns and labels:
[1] = Calibration of pH indicator dye (pK from fluorescence-excitation ratio titration curve); format: physicochemical; conditions: 10° C., five sets of experiments, ± SD
Experimental: We calibrated the pH indicator dye pyranine at 10° C. by mixing in the SF device two identical solutions that were either the pH-7.50 “pH calibration solution for dye” listed in (Table 1), or variants thereof obtained by titrating the pH as outlined in a footnote to (Table 1). For each pH value X, we computed (I460/I415)pHx as described in the previous section. We fitted the following theoretical titration curve to our experimental data:
[formula] which normalizes the data to the value observed at pH 7.5, and forces the function to have a value of unity at this pH.
We used an iterative non-linear least-squares method to determine b and pK. […] The best-fit values were 7.11±0.01 (SD) for the pK, and 1.39±0.01(SD) for b. We used these values of pK and b and the values for ratio of (I460/I415) in each experiment to calculate pH.

[2] = cited from earlier work
[3] = test system: intact RBCs and hemolysate released CA; test: Stopped-flow out-of-equilibrium CA assay on mixtures of intact and hemolyzed mouse RBCs; format: biochemical
Text: (§1) [drawing 3] causing pH to rise exponentially.
(§2) Adult C57/BL6 mice (8 to 16 weeks old) were sacrificed by cervical dislocation and blood was immediately collected by cardiac puncture using a 1-mL syringe (Becton, Dickinson and Co., Franklin Lakes, N.J., USA) with a 23 gauge PrecisionGlide needle (Becton, Dickinson and Co.). Prior to blood collection the syringe and needle were rinsed with 0.9% sodium heparin (H4784, Sigma-Aldrich). The blood was transferred to a 1.5-mL microcentrifuge tube, centrifuged in a Beckman Microfuge 16 Microcentrifuge (Beckman, Brea, Calif.) at 600×g for 10 min and the resulting supernatant and buffy coat were removed. To remove any residual extracellular Hb, the pelleted red blood cells (RBCs) were resuspended—in solution A to a 10% hematocrit (Hct)—and centrifuged at 600×g for 5 minutes. This process was repeated 4×. After the final wash the RBCs were resuspended in solution A to a final Hct of ˜20% to ˜30%.
(§3) A solution of isolated Hb was obtained by osmotic lysis of 20 μL of freshly prepared mouse RBCs (see above) in pure H2O (1:8 dilution), followed by centrifugation at 15000×g for 5 minutes in a Beckman Microfuge 16 Microcentrifuge, at RT room temperature. This centrifugation step separated the cellular debris from the Hb containing supernatant. The supernatant (cleared of cellular debris) then was removed and transferred to a clean 1.5 mL Eppendorf tube for a The Hb concentration of the supernatant was spectroscopic determination of [Hb] using the visible absorbance spectroscopy as described above.
Simulated degrees of hemolysis (0-up to 100%) were achieved by mixing different proportions of freshly prepared, ostensibly “intact” RBCs and a lysate (representing 100% lysis), while maintaining the total Hb concentration at 5 μM (Table 2). For example, the mixture simulating ostensibly 0% hemolysis contained 5 μM Hb from RBCs. The mixture simulating ostensibly 50% hemolysis contained 2.5 μM Hb from RBCs and 2.5 μM Hb from the lysate supernatant (added to the RBC mixture in a dilution of ˜1:400 to ˜1:4000, depending on the [Hb]). […]

hemolysate released CA = test: Stopped-flow out-of-equilibrium CA assay on mouse hemolysate; format: biochemical
Text: as §1
as §2, with “After the final wash the RBCs were resuspended in solution A to a final Hct of ˜20% to ˜30%.” left out
as §3, with “This centrifugation step separated the cellular debris from the Hb containing supernatant.” left out, “above. […]” for “above.”

SMILES: O=S(=O)([O-])c1cc(O)c2ccc3c(S(=O)(=O)[O-])cc(S(=O)(=O)[O-])c4ccc1c2c34.[Na+].[Na+].[Na+] [pyranine]
- pK (best-fit value) [1]: 7.11±0.01
- PKa in previous study [2]: around 7.3

SMILES: CC(=O)Nc1nnc(S(N)(=O)=O)s1 [ACZ, acetazolamide]
- extracellular CA enzyme activity with ACZ ([3]; 10 μM ACZ in syringe opposite to RBCs): totally blocked
- krx (rate constant of HCO3- + H+ -> CO2 + H2O reaction) in presence of ACZ ([3]; 10 μM ACZ in syringe opposite to RBCs (5%-100% hemolysis of RBCs), 10° C., reduced to the uncatalyzed value): ~0.02 s-^1
- time for pHo to reach ~7.5 with ACZ ([3]; ACZ in solution opposite to RBCs (FIG. 4D)): ~200 s
- krx (rate constant of HCO3- + H+ -> CO2 + H2O reaction) in presence of ACZ (hemolysate released CA; 10 μM ACZ in syringe opposite to hemolysate (5%-100% relative amount), 10° C., reduced to the uncatalyzed value): ~0.02 s-^1
- time for pHo to reach ~7.5 with ACZ (hemolysate released CA; ACZ in solution opposite to hemolysate (FIG. 3D)): ~200 s
